Values joined by “and” are separate entries in the source; they are usually repeats but may differ in a detail not shown here. Equal values may be shown once.
Legend:
[1] = tested on: storage potatoes; assay: Field trial: sprout suppression in storage potatoes, composition applied on a conveyor belt; type: in vivo, Solanum tuberosum
Description: The efficacy of sprout inhibitor for sprout suppression in storage potatoes was evaluated by applying the composition of present invention on potatoes on a conveyor belt. The treatment application for trial is at crop storage majority treatment 1) Beginning of sprouting: sprouts visible (<1 mm) and, treatment 2) at end of dormancy (sprouts 2-3 mm). After completion of the test, the potatoes were evaluated on sprouting reduction efficiency. No phytotoxicity was observed.

[2] = tested on: potatoes of the variety Fontane and Innovator; assay: Field trials in Belgium 2018/2019: anti-sprout spray treatment of stored potatoes; type: in vivo, Solanum tuberosum; parameters: Tuber sprate 126 da-a / Tuber sprate 182 da-a: scale not given here; Sprout weight after 55 DA / Sprout LENMAX after 55 DA / Sprout weight 55 DA / Sprout weight 116 DA / Sprout Lenmax 55 DA / Sprout Lenmax 116 DA / Sprout lenmax 126 DA-A / Sprout lenmax 182 DA-A / Sprout weight 126 DA / Sprout weight 182 DA: unit not given here; settings: for Sprout LENMAX after 55 DA: Length maximal; for Sprout Lenmax 55 DA / Sprout weight 55 DA / Tuber sprout % 55 DA / Sprout Lenmax 116 DA / Sprout weight 116 DA / Tuber sprout % 116 DA: Table 4; for Sprout lenmax 126 DA-A / Sprout weight 126 DA / Tuber sprouted (%) 126 DA / Tuber sprate 126 da-a / Sprout lenmax 182 DA-A / Sprout weight 182 DA / Tuber sprouted % 182 DA / Tuber sprate 182 da-a: Table 5
Description: Field trials were conducted in Belgium, during 2018 and 2019, in the potato crop. The potatoes of the variety Fontane and Innovator was used for anti-sprout treatment (Variety for processing) came up directly from the field (Harvested on Oct. 5, 2018 and Sep. 19, 2018).
The trial was set up in randomized complete block with single control randomized in each block under commercial storage practice. Potatoes treated 3 days after lifting and skin maturity was good. For application of formulation (carrier: 200 ml water for one treatment) container with rack and spray stick was used.
The first application (A) was carried out Potatoes treated 3 days after lifting. The following applications were carried out at four weeks' interval for each treatment.
(A): right after harvest, before putting into storage.
Storage conditions: The trials are stored in shed at temperature 5-18° C. and all plots of a trial should be stored in the same place.

[3] = Treatment (1): Beginning of sprouting, rate 195 ml/1000 kg
[4] = Treatment (2): At end of dormancy, rate not given
[5] = Treatment (1): Beginning of sprouting, rate 400 ml/1000 kg
[6] = Treatment (1): Beginning of sprouting, rate 300 ml/1000 kg
[7] = Treatment (1): Beginning of sprouting, rate 60 ml/1000 kg

Structure (SMILES): CCCCCCC=CC(C)=O [3-Decen-2-One]
- Sprout No. [1, 3]: 9.0
- Sprouted (%) [1, 3]: 24.75%
- Sprout Number [1, 4]: 32.7
- Sprouted (%) [1, 4]: 100.0%

Structure (SMILES): O=C(O)COc1ccc(Cl)cc1Cl [2,4-D]
- Sprout No. [1, 5]: 12.3
- Sprouted (%) [1, 5]: 31.14%
- Sprout Number [1, 4]: 38.7
- Sprouted (%) [1, 4]: 99.21%

Structure (SMILES): COCc1cnc(C2=NC(C)(C(C)C)C(=O)N2)c(C(=O)O)c1 (stereo not drawn) [Imazamox, 5-(methoxymethyl)-2-(4-methyl-5-oxo-4-propan-2-yl-1H-imidazol-2-yl)pyridine-3-carboxylic acid]
- Sprout No. [1, 5]: 9.7
- Sprouted (%) [1, 5]: 24.77%
- Sprout Number [1, 4]: 16.7
- Sprouted (%) [1, 4]: 42.54%
- Sprout weight after 55 DA ([2]; rate 12 g ai/1000 kg): 6.89
- Tuber SPROUTED (%) after 55 DA ([2]; rate 12 g ai/1000 kg): 78.67%
- Sprout weight after 55 DA ([2]; rate 18 g ai/1000 kg): 4.09
- Tuber SPROUTED (%) after 55 DA ([2]; rate 18 g ai/1000 kg): 73.21%
- Sprout weight after 55 DA ([2]; rate 24 g ai/1000 kg): 4.2
- Tuber SPROUTED (%) after 55 DA ([2]; rate 24 g ai/1000 kg): 75.26%
- Sprout weight after 55 DA ([2]; rate 30 g ai/1000 kg): 4.13
- Tuber SPROUTED (%) after 55 DA ([2]; rate 30 g ai/1000 kg): 71.68%
- Sprout LENMAX after 55 DA ([2]; rate 12 g ai/1000 kg): 1.5
- Sprout LENMAX after 55 DA ([2]; rate 18 g ai/1000 kg): 1.7
- Sprout LENMAX after 55 DA ([2]; rate 24 g ai/1000 kg): 1.2
- Sprout LENMAX after 55 DA ([2]; rate 30 g ai/1000 kg): 1.7
- Sprout Lenmax 55 DA ([2]; rate 100 ml/1000 kg): 1.5
- Sprout weight 55 DA ([2]; rate 100 ml/1000 kg): 6.89
- Tuber sprout % 55 DA ([2]; rate 100 ml/1000 kg): 78.67%
- Sprout Lenmax 55 DA ([2]; rate 150 ml/1000 kg): 1.7
- Sprout weight 55 DA ([2]; rate 150 ml/1000 kg): 4.09
- Tuber sprout % 55 DA ([2]; rate 150 ml/1000 kg): 73.21%
- Sprout Lenmax 55 DA ([2]; rate 200 ml/1000 kg): 1.2
- Sprout weight 55 DA ([2]; rate 200 ml/1000 kg): 4.2
- Tuber sprout % 55 DA ([2]; rate 200 ml/1000 kg): 75.26%
- Sprout Lenmax 55 DA ([2]; rate 250 ml/1000 kg): 1.7
- Sprout weight 55 DA ([2]; rate 250 ml/1000 kg): 4.13
- Tuber sprout % 55 DA ([2]; rate 250 ml/1000 kg): 71.68%
- Sprout Lenmax 116 DA ([2]; rate 100 ml/1000 kg): 3.3
- Sprout weight 116 DA ([2]; rate 100 ml/1000 kg): 12.31
- Tuber sprout % 116 DA ([2]; rate 100 ml/1000 kg): 85.86%
- Sprout Lenmax 116 DA ([2]; rate 150 ml/1000 kg): 2.8
- Sprout weight 116 DA ([2]; rate 150 ml/1000 kg): 7.92
- Tuber sprout % 116 DA ([2]; rate 150 ml/1000 kg): 79.15%
- Sprout Lenmax 116 DA ([2]; rate 200 ml/1000 kg): 2
- Sprout weight 116 DA ([2]; rate 200 ml/1000 kg): 7.07
- Tuber sprout % 116 DA ([2]; rate 200 ml/1000 kg): 81.59%
- Sprout Lenmax 116 DA ([2]; rate 250 ml/1000 kg): 1.3
- Sprout weight 116 DA ([2]; rate 250 ml/1000 kg): 4.92
- Tuber sprout % 116 DA ([2]; rate 250 ml/1000 kg): 71.93%
- Sprout lenmax 126 DA-A ([2]; rate 50 ml/1000 kg): 3.7
- Sprout lenmax 126 DA-A ([2]; rate 100 ml/1000 kg): 2.8 and 5.2
- Sprout lenmax 126 DA-A ([2]; rate 150 ml/1000 kg): 1.7
- Sprout lenmax 126 DA-A ([2]; rate 200 ml/1000 kg): 2.2 and 2.1
- Sprout lenmax 126 DA-A ([2]; rate 250 ml/1000 kg): 0.9
- Sprout weight 126 DA ([2]; rate 50 ml/1000 kg): 6.54
- Tuber sprouted (%) 126 DA ([2]; rate 50 ml/1000 kg): 88.47%
- Sprout weight 126 DA ([2]; rate 150 ml/1000 kg): 2.23 and 1.83
- Tuber sprouted (%) 126 DA ([2]; rate 150 ml/1000 kg): 81.43% and 72.58%
- Sprout weight 126 DA ([2]; rate 200 ml/1000 kg): 1.93 and 1.75
- Tuber sprouted (%) 126 DA ([2]; rate 200 ml/1000 kg): 73.58% and 75.44%
- Sprout weight 126 DA ([2]; rate 250 ml/1000 kg): 1.65
- Tuber sprouted (%) 126 DA ([2]; rate 250 ml/1000 kg): 75.06%
- Tuber sprate 126 da-a ([2]; rate 50 ml/1000 kg): 8.83
- Tuber sprate 126 da-a ([2]; rate 100 ml/1000 kg): 9.5 and 8.83
- Tuber sprate 126 da-a ([2]; rate 150 ml/1000 kg): 9.5 and 9.58
- Tuber sprate 126 da-a ([2]; rate 200 ml/1000 kg): 9.67 and 9.75
- Tuber sprate 126 da-a ([2]; rate 250 ml/1000 kg): 9.75
- Sprout lenmax 182 DA-A ([2]; rate 50 ml/1000 kg): 4.2
- Sprout lenmax 182 DA-A ([2]; rate 150 ml/1000 kg): 1 and 0.7
- Sprout lenmax 182 DA-A ([2]; rate 200 ml/1000 kg): 1.7 and 1
- Sprout lenmax 182 DA-A ([2]; rate 250 ml/1000 kg): 1.2
- Sprout weight 182 DA ([2]; rate 50 ml/1000 kg): 23
- Tuber sprouted % 182 DA ([2]; rate 50 ml/1000 kg): 88.1%
- Tuber sprouted % 182 DA ([2]; rate 100 ml/1000 kg): 83.33% and 86.19%
- Sprout weight 182 DA ([2]; rate 150 ml/1000 kg): 3.77 and 3.13
- Tuber sprouted % 182 DA ([2]; rate 150 ml/1000 kg): 73.1% and 75.45%
- Sprout weight 182 DA ([2]; rate 200 ml/1000 kg): 5.77 and 3.3
- Tuber sprouted % 182 DA ([2]; rate 200 ml/1000 kg): 77.93% and 65.99%
- Sprout weight 182 DA ([2]; rate 250 ml/1000 kg): 3.53
- Tuber sprouted % 182 DA ([2]; rate 250 ml/1000 kg): 74.98%
- Tuber sprate 182 da-a ([2]; rate 50 ml/1000 kg): 8.67
- Tuber sprate 182 da-a ([2]; rate 100 ml/1000 kg): 9.67 and 8.83
- Tuber sprate 182 da-a ([2]; rate 150 ml/1000 kg): 9.75
- Tuber sprate 182 da-a ([2]; rate 200 ml/1000 kg): 9.58 and 9.67
- Tuber sprate 182 da-a ([2]; rate 250 ml/1000 kg): 9.67
- sprout control over time (in words) ([2]; as compared to other treatments such as maleic hydrazide, CIPC): effective sprout control over an extended period of time
- inhibition of sprouts (in words) ([2]; comment on Table 3): effective for inhibition of sprouts
- sprout weight (in words) ([2]; comment on Table 3, as compared to maleic hydrazide): an advantage was found
- tubers germinated ([2]; comment on Table 5, dose rate 250 ml/1000 kg): 74%

Structure (SMILES): C=C(C)C1CC=C(C)C(=O)C1 (stereo not drawn) [Carvone]
- Sprout No. [1, 6]: 12.3
- Sprouted (%) [1, 6]: 32.02%
- Sprout Number [1, 4]: 34.0
- Sprouted (%) [1, 4]: 96.02%

Structure (SMILES): Cc1ccc(C)c2ccccc12 [1,4-Dimethylnaphthalene]
- Sprout No. [1, 7]: 15.7
- Sprouted (%) [1, 7]: 42.80%
- Sprout Number [1, 4]: 34.3
- Sprouted (%) [1, 4]: 94.59%

— US20220202012A1, “SPROUT INHIBITOR FOR POTATO AND METHOD OF USE THEREOF” (UPL Limited, priority 2019, published 2022)
